Results taken from PubChem BioAssay AID2060489 (Molecular Pharmacology Branch, DTP, NCI, 2025).

Tested on: 922993-354-T-J3-PDC complex spheroids, viability
Test: Anticancer human tumor 922993-354-T-J3-PDC patient-derived endometrial carcinoma cell line growth inhibition [GQUAD]
Settings: for IC50: curve of first compound; for viability, T/C: stronger effect = lower value
How it was run: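 Tumor cells were grown as complex spheroids with HUVEC endothelial cells and mesenchymal stem cells as stroma. G-quadruplex stabilizers were combined with targeted agents over half-log dilutions from near the clinical Cmax, or from 10 microM.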

[1] = second compound 0.0316 µM, first compound 0.0316 µM
[2] = second compound 0.0316 µM, first compound 0.1 µM
[3] = second compound 0.0316 µM, first compound 0.316 µM
[4] = second compound 0.0316 µM, first compound 1 µM
[5] = second compound 0.0316 µM, first compound 3.16 µM
[6] = second compound 0.0316 µM, first compound 10 µM
[7] = second compound 0.1 µM, first compound 0.0316 µM
[8] = second compound 0.1 µM, first compound 0.1 µM
[9] = second compound 0.1 µM, first compound 0.316 µM
[10] = second compound 0.1 µM, first compound 1 µM
[11] = second compound 0.1 µM, first compound 3.16 µM
[12] = second compound 0.1 µM, first compound 10 µM
[13] = second compound 0.316 µM, first compound 0.0316 µM
[14] = second compound 0.316 µM, first compound 0.1 µM
[15] = second compound 0.316 µM, first compound 0.316 µM
[16] = second compound 0.316 µM, first compound 1 µM
[17] = second compound 0.316 µM, first compound 3.16 µM
[18] = second compound 0.316 µM, first compound 10 µM
[19] = second compound 1 µM, first compound 0.0316 µM
[20] = second compound 1 µM, first compound 0.1 µM
[21] = second compound 1 µM, first compound 0.316 µM
[22] = second compound 1 µM, first compound 1 µM
[23] = second compound 1 µM, first compound 3.16 µM
[24] = second compound 1 µM, first compound 10 µM
[25] = second compound 3.16 µM, first compound 0.0316 µM
[26] = second compound 3.16 µM, first compound 0.1 µM
[27] = second compound 3.16 µM, first compound 0.316 µM
[28] = second compound 3.16 µM, first compound 1 µM
[29] = second compound 3.16 µM, first compound 3.16 µM
[30] = second compound 3.16 µM, first compound 10 µM
[31] = second compound 10 µM, first compound 0.0316 µM
[32] = second compound 10 µM, first compound 0.1 µM
[33] = second compound 10 µM, first compound 0.316 µM
[34] = second compound 10 µM, first compound 1 µM
[35] = second compound 10 µM, first compound 3.16 µM
[36] = second compound 10 µM, first compound 10 µM
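Also: spheroids exposed to compounds for seven days.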
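For viability, T/C in this document: 100% = DMSO vehicle control viability.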

In the case of `CC(C)n1c(=O)n(C)c2cnc3cc(F)c(-c4ccc(OCCCN5CCCCC5)nc4)cc3c21` + Cc1cnc(CNC(=O)c2c(=O)c3ccc(N4CCCN(C)CC4)nc3n3c2sc2ccccc23)cn1, the IC50 (second compound 0.0316 µM) is reported as > 10000 nM, the IC50 (second compound 0.1 µM) is reported as 255 nM and the IC50 (second compound 0.316 µM) is reported as < 31.6 nM. For the same compound, the IC50 (second compound 1 µM) was 480 nM, the IC50 (second compound 3.16 µM) was < 31.6 nM and the IC50 (second compound 10 µM) was < 31.6 nM. For the same compound, the viability, T/C [1] was 87.1%, the viability, T/C [2] was 75% and the viability, T/C [3] was 59.3%. The viability, T/C [4] was 59.8%, the viability, T/C [5] was 52.9% and the viability, T/C [6] was 52%. It also gave a viability, T/C [7] of 53.6%, a viability, T/C [8] of 54.5% and a viability, T/C [9] of 44.9%. The viability, T/C [10] was 45.4%, the viability, T/C [11] was 52.9% and the viability, T/C [12] was 41.6%. For the same compound, the viability, T/C [13] was 52.2%, the viability, T/C [14] was 41.4% and the viability, T/C [15] was 46.9%. It also gave a viability, T/C [16] of 40%, a viability, T/C [17] of 59.2% and a viability, T/C [18] of 46.6%. It also gave a viability, T/C [19] of 44.1%, a viability, T/C [20] of 53.9% and a viability, T/C [21] of 54.4%. The viability, T/C [22] was 49.5%, the viability, T/C [23] was 45.6% and the viability, T/C [24] was 38.6%. It also gave a viability, T/C [25] of 45.4%, a viability, T/C [26] of 45.6% and a viability, T/C [27] of 49%. For the same compound, the viability, T/C [28] was 48.6%, the viability, T/C [29] was 58.8% and the viability, T/C [30] was 44.6%. The viability, T/C [31] was 41.9%, the viability, T/C [32] was 43.6% and the viability, T/C [33] was 36.6%. The viability, T/C [34] was 42.1%, the viability, T/C [35] was 37.9% and the viability, T/C [36] was 28.3%.
`CC1COCCN1c1cc(-c2ccnn2C)c2ccnc(-c3ccn[nH]3)c2n1` (centres undefined) + Cc1cnc(CNC(=O)c2c(=O)c3ccc(N4CCCN(C)CC4)nc3n3c2sc2ccccc23)cn1 was tested, and the IC50 (second compound 0.0316 µM) was < 31.6 nM, the IC50 (second compound 0.1 µM) was < 31.6 nM and the IC50 (second compound 0.316 µM) was < 31.6 nM. The IC50 (second compound 1 µM) was < 31.6 nM, the IC50 (second compound 3.16 µM) was < 31.6 nM and the IC50 (second compound 10 µM) was < 31.6 nM. The viability, T/C [1] was 49.1%, the viability, T/C [2] was 50.3% and the viability, T/C [3] was 42.2%. It also gave a viability, T/C [4] of 24.7%, a viability, T/C [5] of 24.3% and a viability, T/C [6] of 21.9%. For the same compound, the viability, T/C [7] was 45.4%, the viability, T/C [8] was 42.9% and the viability, T/C [9] was 25.3%. For the same compound, the viability, T/C [10] was 25.7%, the viability, T/C [11] was 28.9% and the viability, T/C [12] was 20.7%. It also gave a viability, T/C [13] of 45.5%, a viability, T/C [14] of 44.4% and a viability, T/C [15] of 37.2%. It also gave a viability, T/C [16] of 33.5%, a viability, T/C [17] of 22.9% and a viability, T/C [18] of 20.9%. It also gave a viability, T/C [19] of 43.7%, a viability, T/C [20] of 51.7% and a viability, T/C [21] of 46%. It also gave a viability, T/C [22] of 43.8%, a viability, T/C [23] of 22.9% and a viability, T/C [24] of 6.94%. It also gave a viability, T/C [25] of 50.1%, a viability, T/C [26] of 43.8% and a viability, T/C [27] of 46.6%. The viability, T/C [28] was 36.6%, the viability, T/C [29] was 8.14% and the viability, T/C [30] was 0.53%. It also gave a viability, T/C [31] of 51.9%, a viability, T/C [32] of 42% and a viability, T/C [33] of 46.3%. The viability, T/C [34] was 22.2%, the viability, T/C [35] was 0.68% and the viability, T/C [36] was 0.18%.
